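How tested: cells in 96-well plates exposed to compound for 48 hours at five concentrations. GI50 = concentration required for 50% inhibition of growth.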 The source made the active and inactive calls. Cut-off read from the data, not from the text of the source: active = GI50 up to about 1.1 µM and inactive = higher.
What was measured:
Assay in all cases: inhibition of tumour cell growth, NCI panel, 48 h
UO-31 = system: UO-31
KM12 = system: KM12
SNB-78 = system: SNB-78
SK-MEL-28 = system: SK-MEL-28
HT-29 = system: HT-29
SNB-75 = system: SNB-75
SF-295 = system: SF-295
SK-MEL-5 = system: SK-MEL-5
SW-620 = system: SW-620
UACC-257 = system: UACC-257
RPMI-8226 = system: RPMI-8226
SNB-19 = system: SNB-19
COLO 205 = system: COLO 205
HCT-15 = system: HCT-15
U-251 = system: U-251
Malme-3M = system: Malme-3M
A498 = system: A498
T47D = system: T47D
BT-549 = system: BT-549
PC-3 = system: PC-3

Structure (SMILES)	GI50 (UO-31)	GI50 (KM12)	GI50 (SNB-78)	GI50 (SK-MEL-28)	GI50 (HT-29)	GI50 (SNB-75)	GI50 (SF-295)	GI50 (SK-MEL-5)	GI50 (SW-620)	GI50 (UACC-257)	GI50 (RPMI-8226)	GI50 (SNB-19)	GI50 (COLO 205)	GI50 (HCT-15)	GI50 (U-251)	GI50 (Malme-3M)	GI50 (A498)	GI50 (T47D)	GI50 (BT-549)	GI50 (PC-3)
CN(C)CCNC(=O)Cc1ccccc1Nc1c(Cl)cccc1Cl	12.6 µM (inactive)	18.5 µM (inactive)	17.7 µM (inactive)	18.5 µM (inactive)	10.3 µM (inactive)	12.7 µM (inactive)	16 µM (inactive)	15 µM (inactive)	18.2 µM (inactive)	12.8 µM (inactive)	16.6 µM (inactive)	17.2 µM (inactive)	16.4 µM (inactive)	15.6 µM	10.9 µM (inactive)	–	–	–	–	–
Cc1ccc(NC(=O)CCC(=O)C(C#N)c2ccc(Cl)cc2)cc1C (stereo unspecified)	> 100 µM (inactive)	> 100 µM (inactive)	> 100 µM (inactive)	> 100 µM (inactive)	> 100 µM (inactive)	> 100 µM (inactive)	> 100 µM (inactive)	> 100 µM (inactive)	> 100 µM (inactive)	> 100 µM (inactive)	> 100 µM (inactive)	> 100 µM (inactive)	–	> 100 µM	> 100 µM (inactive)	> 100 µM (inactive)	> 100 µM (inactive)	–	–	–
O=c1[nH]cc(C(F)(C(F)(F)F)C(F)(F)F)c(=O)[nH]1	> 100 µM (inactive)	> 100 µM (inactive)	> 100 µM (inactive)	> 100 µM (inactive)	> 100 µM (inactive)	> 100 µM (inactive)	> 100 µM (inactive)	> 100 µM (inactive)	> 100 µM (inactive)	> 100 µM (inactive)	> 100 µM (inactive)	> 100 µM (inactive)	> 100 µM (inactive)	> 100 µM	> 100 µM (inactive)	> 100 µM (inactive)	> 100 µM (inactive)	–	–	–
COc1ccc(Cc2nc3ccccc3s2)cc1OC	16.4 µM (inactive)	17.4 µM (inactive)	19.8 µM (inactive)	18 µM (inactive)	18.7 µM (inactive)	18.8 µM (inactive)	15.1 µM (inactive)	16.1 µM (inactive)	18.5 µM (inactive)	18.1 µM (inactive)	23.7 µM (inactive)	32.5 µM (inactive)	14.6 µM (inactive)	24.2 µM	14.6 µM (inactive)	17.1 µM (inactive)	23.7 µM (inactive)	–	–	–
CN(C)/C(F)=P\C(F)(F)F (stereo unspecified)	> 100 µM (inactive)	> 100 µM (inactive)	> 100 µM (inactive)	> 100 µM (inactive)	> 100 µM (inactive)	> 100 µM (inactive)	> 100 µM (inactive)	> 100 µM (inactive)	> 100 µM (inactive)	> 100 µM (inactive)	> 100 µM (inactive)	> 100 µM (inactive)	> 100 µM (inactive)	> 100 µM	> 100 µM (inactive)	> 100 µM (inactive)	> 100 µM (inactive)	–	–	–
COC(=O)C1CC/C(=N/c2ccc(C)cc2C)N1 (stereo unspecified)	> 100 µM (inactive)	> 100 µM (inactive)	> 100 µM (inactive)	> 100 µM (inactive)	> 100 µM (inactive)	99.3 µM (inactive)	> 100 µM (inactive)	> 100 µM (inactive)	> 100 µM (inactive)	> 100 µM (inactive)	> 100 µM (inactive)	> 100 µM (inactive)	> 100 µM (inactive)	> 100 µM	> 100 µM (inactive)	> 100 µM (inactive)	> 100 µM (inactive)	–	–	–
CCCCCCCCCCCCCCCC(=O)OCCOCCOCCOCCOCCOC(=O)CCCCCCCCCCCCCCC	> 100 µM (inactive)	> 100 µM (inactive)	> 100 µM (inactive)	> 100 µM (inactive)	> 100 µM (inactive)	> 10 µM (inactive)	> 100 µM (inactive)	> 100 µM (inactive)	> 100 µM (inactive)	> 100 µM (inactive)	> 100 µM (inactive)	> 100 µM (inactive)	> 100 µM (inactive)	> 100 µM	> 100 µM (inactive)	> 100 µM (inactive)	> 100 µM (inactive)	–	–	–
C[C@@H]1C(=O)CC2C(C)(C)CCC[C@]2(C)[C@@]12CC[C@]1(C=COC1)O2 (stereo partly specified)	29.9 µM (inactive)	39.4 µM (inactive)	41.2 µM (inactive)	–	28.2 µM (inactive)	–	36.6 µM (inactive)	–	50.8 µM (inactive)	–	–	61 µM (inactive)	32.3 µM (inactive)	30.5 µM	–	27.8 µM (inactive)	–	–	–	–
COC(=O)c1c[nH]cc1CCc1c[nH]cc1C(=O)OC	–	> 100 µM (inactive)	> 100 µM (inactive)	> 100 µM (inactive)	> 100 µM (inactive)	–	> 100 µM (inactive)	–	> 100 µM (inactive)	> 100 µM (inactive)	–	> 100 µM (inactive)	> 100 µM (inactive)	> 100 µM	> 100 µM (inactive)	> 100 µM (inactive)	48.2 µM (inactive)	–	–	–
O=c1c(O)c(-c2ccccc2)n(O)c2ccc(Cl)cc12	51.2 µM (inactive)	31.6 µM (inactive)	37.3 µM (inactive)	44 µM (inactive)	36.8 µM (inactive)	29 µM (inactive)	29.4 µM (inactive)	17.5 µM (inactive)	16.6 µM (inactive)	25.1 µM (inactive)	23.4 µM (inactive)	34.2 µM (inactive)	36.1 µM (inactive)	16 µM	25.8 µM (inactive)	60.1 µM (inactive)	29.2 µM (inactive)	–	–	–
CC(C)c1cc(OCC(O)CO)cc(C(C)C)c1 (stereo unspecified)	> 100 µM (inactive)	> 100 µM (inactive)	> 100 µM (inactive)	> 100 µM (inactive)	> 100 µM (inactive)	> 100 µM (inactive)	> 100 µM (inactive)	> 100 µM (inactive)	> 100 µM (inactive)	> 100 µM (inactive)	–	> 100 µM (inactive)	> 100 µM (inactive)	> 100 µM	> 100 µM (inactive)	> 100 µM (inactive)	> 100 µM (inactive)	–	–	–
CCOC(=N)CC(=O)Nc1ccccc1CC	> 100 µM (inactive)	> 100 µM (inactive)	> 100 µM (inactive)	> 100 µM (inactive)	> 100 µM (inactive)	> 100 µM (inactive)	> 100 µM (inactive)	> 100 µM (inactive)	> 100 µM (inactive)	> 100 µM (inactive)	–	> 100 µM (inactive)	> 100 µM (inactive)	> 100 µM	> 100 µM (inactive)	> 100 µM (inactive)	> 100 µM (inactive)	–	–	–
CC(C)(C)C#C[P+](c1ccccc1)(c1ccccc1)c1ccccc1	1.04 µM (active)	0.238 µM (active)	0.339 µM (active)	0.0728 µM (active)	0.292 µM (active)	0.0348 µM (active)	0.292 µM (active)	0.187 µM (active)	0.152 µM (active)	0.366 µM (active)	0.0377 µM (active)	0.274 µM (active)	0.17 µM (active)	0.655 µM	0.119 µM (active)	0.349 µM (active)	0.23 µM (active)	–	–	–
CC1=C(C(=O)Nc2ccc([N+](=O)[O-])cc2)C(c2ccc3c(c2)OCO3)C(C(=O)Nc2ccc([N+](=O)[O-])cc2)=C(C)N1	6.4 µM (inactive)	3.8 µM (inactive)	68.4 µM (inactive)	24.9 µM (inactive)	6.95 µM (inactive)	6.18 µM (inactive)	8.34 µM (inactive)	–	51.9 µM (inactive)	5.6 µM (inactive)	5.04 µM (inactive)	> 100 µM (inactive)	4.13 µM (inactive)	8.09 µM	30.1 µM (inactive)	23.9 µM (inactive)	14.2 µM (inactive)	–	–	–
O=c1[nH]c(-c2ccccc2)nc2cc(Cl)ccc12	> 100 µM (inactive)	> 100 µM (inactive)	> 100 µM (inactive)	> 100 µM (inactive)	> 100 µM (inactive)	> 100 µM (inactive)	> 100 µM (inactive)	> 100 µM (inactive)	> 100 µM (inactive)	> 100 µM (inactive)	> 100 µM (inactive)	–	–	> 100 µM	> 100 µM (inactive)	> 100 µM (inactive)	> 100 µM (inactive)	–	–	–
CC(C)NCC(O)COC(=O)c1cccs1 (stereo unspecified)	> 100 µM (inactive)	> 100 µM (inactive)	> 100 µM (inactive)	> 100 µM (inactive)	> 100 µM (inactive)	67.8 µM (inactive)	> 10 µM (inactive)	> 100 µM (inactive)	> 100 µM (inactive)	> 100 µM (inactive)	> 100 µM (inactive)	> 100 µM (inactive)	> 100 µM (inactive)	> 100 µM	–	> 100 µM (inactive)	–	–	–	–
COc1ccc(O)c(C#N)c1C#N	> 100 µM (inactive)	> 100 µM (inactive)	> 100 µM (inactive)	–	> 100 µM (inactive)	> 100 µM (inactive)	> 100 µM (inactive)	> 100 µM (inactive)	> 100 µM (inactive)	> 100 µM (inactive)	> 100 µM (inactive)	> 100 µM (inactive)	> 100 µM (inactive)	> 100 µM	> 100 µM (inactive)	> 100 µM (inactive)	> 100 µM (inactive)	–	–	–
COc1cc(C[C@H]2c3cc(OC)c(OC)cc3CCN2C)c(Oc2cc3c(cc2OC)-c2c(OC)c(OC)cc4c2[C@H](C3)N(C)CC4)cc1OC [THALICARPINE]	4.66 µM (inactive)	5.18 µM (inactive)	–	4.02 µM (inactive)	5.66 µM (inactive)	7.03 µM (inactive)	10.1 µM (inactive)	3.28 µM (inactive)	7.53 µM (inactive)	5.13 µM (inactive)	8.04 µM (inactive)	16.7 µM (inactive)	5.75 µM (inactive)	5.04 µM	3.9 µM (inactive)	9.44 µM (inactive)	7.06 µM (inactive)	10.1 µM (inactive)	6.52 µM (inactive)	4.93 µM (inactive)
